Experimental findings from US10138212B2, “Aminoquinazoline compounds as A2A antagonist” (Merck Sharp & Dohme Corp., priority 2015, dated 2018) are described below.

One experiment has as its target human A1 receptor (Homo sapiens (Human), UniProt P30542). Description: A1 competition binding assay using Scintillation Proximity technology; selectivity = A1 binding Ki / A2a binding Ki. As to conditions: A1 binding Ki divided by A2a binding Ki. The procedure: (§1) Binding affinities of compounds of the invention for the human A1 receptor were determined in a competition binding assay using Scintillation Proximity technology. Thus, 5 of membranes from CHO-K1 cells expressing the human A1 receptor were incubated with a compound of the invention at concentrations ranging from 3000 nM to 0.15 nM in a reaction mixture containing also 0.7 nM of a tritiated form of 8-Cyclopentyl-1,3-dipropylxanthine (the tritiated compound) and 25 μg of wheat germ agglutin-coated yttrium silicate SPA beads for one hour at room temperature with agitation. The beads were then allowed to settle to the bottom of the wells for 1 hr, after which the membrane-associated radioactivity was determined by scintillation counting in a TopCount microplate reader. Ki values were determined in a similar fashion described with A2a binding.
• Cells expressing the human, rat, dog or monkey adenosine 1 receptor (Purchased from Perkin-Elmer # ES-010-M400UA • [^3H]DPCPX (purchased from Perkin-Elmer NET-974, 8-cyclopentyl-1,3-dipropylxanthine, [dipropyl-2,3-^3H(N)]. • Wheatgerm agglutinin-coated yttrium silicate SPA beads (Purchased from GE Healthcare #RPNQ0023). Dilute to 25 mg/ml in assay buffer. Store at 4° C. • Assay Buffer—Dulbecco's phosphate buffered saline without calcium and without magnesium+10 mM MgCl2 • Adenosine deaminase from calf intestine, 10 mg/2 ml (Roche #10 102 105 001). • DMSO • DPCPX (A1 antagonist) from Tocris Bioscience Compound Dilution • Dilute compounds to 1 mM in 100% DMSO
Make serial dilutions as necessary (i.e., 1:10, 1:3) in 100% DMSO.
Dilute 1:20 into assay buffer (i.e. 3 ul into 57 ul buffer). This is a 5× solution in 5% DMSO.
• Dilute [^3H]DPCPX to 1.75 nM in assay buffer. This is a 2.5× solution. The final concentration in the assay is 0.7 nM. Calculate the concentration by counting two 5 ul aliquots. Membrane Preparation • Use 5 ug of membrane/well. Dilute membranes to 250 ug/ml in assay buffer. Treat with 20 ug/ml adenosine deaminase (ADA) for 15 minutes at room temperature to degrade endogenous adenosine. Membrane-Bead Mixture • Use 25 ug/well wheatgerm agglutinin-coated yttrium silicate SPA beads • Mix ADA-treated membranes and SPA beads together for 30 min prior to assay. Assay Assembly • Add in order to a Perkin-Elmer Optiplate-384: 10 ul of 5× compound, 20 ul of 2.5× [^3H]DPCPX, 20 ul membrane-bead mixture. Incubate for one hour at room temperature with agitation. • Include total binding (assay buffer+1% DMSO) and non-specific binding (DPCPX, 1 uM) wells. Counting and Calculations
On the technique in general: Scintillation proximity formats need no separation of bound from free tracer.

In the next experiment the target is human A2a receptor (Homo sapiens (Human), UniProt P29274). Description: A2a competition binding assay using Scintillation Proximity technology. The procedure: as §1, with “human A2a” for “human A1”, “Thus, 1* μg, or preferably 0.25 μg” for “Thus, 5”, “from HEK293” for “from CHO-K1”, “also 0.5” for “also 0.7”, “of 5-amino-7-[2-phenethyl]-2-(furan-2-yl)-7H-pyrazolo[4,3-e][1,2,4]triazolo[1,5-c]pyrimidine” for “of 8-Cyclopentyl-1,3-dipropylxanthine”, “determined using the Cheng-Prusoff equation.” for “determined in a similar fashion described with A2a binding.”
HEK293 cells expressing the human, rat, dog or monkey adenosine 2a receptor (Purchased from Perkin-Elmer # RBHA2AM400UA).
The Tritiated compound was prepared in-house by MRL Radiochemistry according to published methods.
Wheat germ agglutinin-coated yttrium silicate SPA beads (GE Healthcare #RPNQ0023). Dilute to 25 mg/ml in assay buffer.
Assay Buffer was prepared in house: Dulbecco's calcium and magnesium free phosphate buffered saline+10 mM MgCl2
Adenosine deaminase from calf intestine, 10 mg/2 ml (Roche #10 102 105 001).
A2a antagonist standard (9-chloro-1-(2-furanyl)-[1,2,4]triazolo1,5-c]quinazolin-5-amine from Tocris Bioscience)
Make eight 1:3 serial dilutions in 100% DMSO from a 3 mM compound stock
Transfer 50 nl of compound into a 384-well OptiPlate (Perkin Elmer).
Typically, final concentrations of compound used in the assay ranged from 3000 nM to 0.152 nM.
Dilute a solution of the Tritiated compound to 1.25 nM in assay buffer. This is a 2.5× solution. The final concentration in the assay is 0.5 nM. Calculate the concentration by counting two 5 μl aliquots.
Use *1 ug or preferrably 0.25 ug of membrane/well. Dilute membranes to 9.7 μg/ml in assay buffer. Treat with 20 ug/ml adenosine deaminase (ADA) for 15 minutes at room temperature to degrade endogenous adenosine.
Use 25 μg/well wheat germ agglutinin-coated yttrium silicate SPA beads.
Mix ADA-treated membranes and SPA beads together for 30 min prior to assay.
To the Perkin-Elmer Optiplate-384 containing the compound titration add 20 μl of 2.5× solution of the Tritiated compound and 30 μl of the membrane-bead mixture. Incubate for one hour at room temperature with agitation.
Include total binding (assay buffer+1% DMSO) and non-specific binding (CGS15943, 1 μM) wells.
Allow the beads to settle for one hour.
A curve fitting program (i.e., Prism, Activity Base, Chemcart) is used to determine the EC50. The Ki value is calculated using the Cheng-Prusoff equation. Ki=EC50/(1+(radioligand concentration/Kd))
Using the foregoing assay method, the Ki results were obtained using the compounds of the invention described in Tables IIIa, IIIb, and IV. Each example compound tested is reported in the following format: Example number: A2a Ki reported in nM. Thus, for example, the compound Ex-1 was determined to have an Ki using the above-described assay and calculations, of 10.0 nM.

[1] abbreviates: 0.25 μg of membranes from HEK293 cells expressing the human A2a receptor.
Where [2] appears, read: * assay run with 1 μg of membranes versus 0.25 μg, HEK293 cells expressing the human A2a receptor.

SMILES strings stand for the structures.

Chain of human A2a receptor (P29274 whole entry): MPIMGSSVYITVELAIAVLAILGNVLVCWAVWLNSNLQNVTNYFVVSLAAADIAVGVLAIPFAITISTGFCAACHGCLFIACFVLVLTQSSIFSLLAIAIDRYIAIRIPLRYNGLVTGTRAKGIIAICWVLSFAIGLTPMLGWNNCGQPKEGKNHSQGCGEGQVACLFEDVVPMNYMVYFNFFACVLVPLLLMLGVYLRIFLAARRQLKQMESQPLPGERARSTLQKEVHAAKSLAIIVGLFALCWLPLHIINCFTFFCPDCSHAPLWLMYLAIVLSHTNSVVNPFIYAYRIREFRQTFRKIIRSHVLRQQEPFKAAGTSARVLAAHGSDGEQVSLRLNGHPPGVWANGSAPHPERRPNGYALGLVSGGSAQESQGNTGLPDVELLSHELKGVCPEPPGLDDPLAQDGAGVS
Chain of human A1 receptor (P30542 whole entry): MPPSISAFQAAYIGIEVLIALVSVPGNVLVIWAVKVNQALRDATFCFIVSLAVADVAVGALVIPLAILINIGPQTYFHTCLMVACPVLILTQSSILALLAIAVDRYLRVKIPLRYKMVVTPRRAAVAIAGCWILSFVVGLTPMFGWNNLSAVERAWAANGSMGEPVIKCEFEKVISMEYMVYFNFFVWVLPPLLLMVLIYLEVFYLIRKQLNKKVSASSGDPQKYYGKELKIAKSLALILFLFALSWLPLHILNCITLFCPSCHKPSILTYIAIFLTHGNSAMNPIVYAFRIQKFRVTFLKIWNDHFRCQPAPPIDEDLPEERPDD

Regarding `Nc1nc(C(=O)NCc2cccc(-c3cnco3)n2)c2cccc(F)c2n1` [Example 70, 2-amino-8-fluoro-N-[(6-oxazol-5-yl-2-pyridyl)methyl]quinazoline-4-carboxamide], the “A2a selectivity (A2a A1 binding selectivity)” value (“A2a selectivity” for short) at human A1 receptor is listed as 19. On human A2a receptor (setting [1]), this compound returned a Ki of 4.5 nM.
For `COc1cccc2c(C(=O)NCc3cccc(C)n3)nc(N)nc12` [Example 15, 2-amino-8-methoxy-N-[(6-methyl-2-pyridyl)methyl]quinazoline-4-carboxamide] the same measures were 319 and 0.5 nM.
In the case of `COc1cccc2c(C(=O)NCc3cccc(Cc4cccnc4)n3)nc(N)nc12` [Example 104, 2-amino-8-methoxy-N-((6-(pyridin-3-ylmethyl)pyridin-2-yl)methyl)quinazoline-4-carboxamide], the “A2a selectivity” value on human A1 receptor was 93. The Ki on human A2a receptor (setting [2]) turned out to be 5 nM.
`Cc1ccc(F)c(CNC(=O)c2nc(N)nc3c(F)cccc23)n1` [Example 76, 2-amino-8-fluoro-N-[(3-fluoro-6-methyl-2-pyridyl)methyl]quinazoline-4-carboxamide]: the “A2a selectivity” value at human A1 receptor turned out to be 115. Also, the affinity on human A2a receptor (setting [1]), expressed as Ki, was 0.5 nM.
For `Nc1nc(C(=O)NCc2cccc(C(F)F)n2)c2cccc(F)c2n1` [Example 71, 2-amino-N-[[6-(difluoromethyl)-2-pyridyl]methyl]-8-fluoro-quinazoline-4-carboxamide], in that order: 60 and 3.6 nM.
For `COc1cccc2c(C(=O)NCc3cccc(CN4CCOCC4)c3)nc(N)nc12` [Example 53, 2-amino-8-methoxy-N-[[3-(morpholinomethyl)phenyl]methyl]quinazoline-4-carboxamide], in that order: 63 and 7.1 nM.
`Cc1ccc(-c2cccnc2CNC(=O)c2nc(N)nc3c(F)cccc23)nc1` [Example 68, 2-amino-8-fluoro-N-[[3-(5-methyl-2-pyridyl)-2-pyridyl]methyl]quinazoline-4-carboxamide]: the “A2a selectivity” value at human A1 receptor worked out at 44. The affinity at human A2a receptor (setting [2]), expressed as Ki, was 9.1 nM.
Take `Nc1nc(C(=O)NCc2cc(C3CC3)on2)c2cccc(F)c2n1` [Example 83, 2-amino-N-[(5-cyclopropylisoxazol-3-yl)methyl]-8-fluoro-quinazoline-4-carboxamide]: at human A1 receptor, the “A2a selectivity” value is 3. The Ki at human A2a receptor (setting [1]) stood at 14 nM.
For the compound `Nc1nc(C(=O)NCC2CC3CCC2C3)c2cccc(F)c2n1` (centres unmarked) [Example 87, 2-amino-8-fluoro-N-(norbornan-2-ylmethyl)quinazoline-4-carboxamide], at human A1 receptor, the “A2a selectivity” value amounted to 3. Also, at human A2a receptor (setting [2]), the Ki is 32 nM.
For `CSc1cccc2c(C(=O)NCc3cccc4cccnc34)nc(N)nc12` [Example 94, 2-amino-8-methylsulfanyl-N-(8-quinolylmethyl)quinazoline-4-carboxamide], at human A1 receptor, the “A2a selectivity” value came out at 11. Also, on human A2a receptor (setting [2]), the Ki worked out at 7.7 nM.
Turning to `Nc1nc(C(=O)NCc2cccc3cccnc23)c2cccc(-c3cncnc3)c2n1` [Example 97, 2-amino-8-pyrimidin-5-yl-N-(8-quinolylmethyl)quinazoline-4-carboxamide], on human A1 receptor, the “A2a selectivity” value is reported as 1. The compound further yielded a Ki on human A2a receptor (setting [1]) of 291 nM.
As to `Cc1csc(-c2cccc(CNC(=O)c3nc(N)nc4c(F)cccc34)n2)n1` [Example 69, 2-amino-8-fluoro-N-[[6-(4-methylthiazol-2-yl)-2-pyridyl]methyl]quinazoline-4-carboxamide], at human A1 receptor, the “A2a selectivity” value is 63. This compound also gave a Ki on human A2a receptor (setting [1]) of 4.2 nM.
Regarding `[2H]C([2H])(NC(=O)c1nc(N)nc2c(OC)cccc12)c1cccc(C([2H])([2H])c2cncc(N3CCOCC3)c2)n1` [Example 110, 2-amino-N-[dideuterio-[6-[dideuterio-(5-morpholino-3-pyridyl)methyl]-2-pyridyl]methyl]-8-methoxy-quinazoline-4-carboxamide], the “A2a selectivity” value at human A1 receptor amounted to 64. The affinity on human A2a receptor (setting [2]) corresponds to a Ki of 2.5 nM.
Consider `Nc1nc(C(=O)NCC23CC4CC(CC(C4)C2)C3)c2cccc(F)c2n1` [Example 85, N-(1-adamantylmethyl)-2-amino-8-fluoro-quinazoline-4-carboxamide], for which, at human A1 receptor, the “A2a selectivity” value was found to be 4. Further, affinity at human A2a receptor (setting [1]) was put at a Ki of 6.4 nM.
As for `CC(C)c1cccc(-c2cccc(CNC(=O)c3nc(N)nc4c(F)cccc34)n2)c1` [Example 65, 2-amino-8-fluoro-N-[[6-(3-isopropylphenyl)-2-pyridyl]methyl]quinazoline-4-carboxamide], the “A2a selectivity” value at human A1 receptor amounted to 50. On human A2a receptor (setting [1]), this compound registered a Ki of 1 nM.
For `COc1cccc2c(C(=O)NCc3cccc(COC4CCCC4)n3)nc(N)nc12` [Example 48, 2-amino-N-[[6-(cyclopentoxymethyl)-2-pyridyl]methyl]-8-methoxy-quinazoline-4-carboxamide] the same measures were 447 and 0.5 nM.
`COc1cccc2c(C(=O)NCc3nc(-c4ccccc4)c(C)o3)nc(N)nc12` [Example 31, 2-amino-8-methoxy-N-[(5-methyl-4-phenyl-oxazol-2-yl)methyl]quinazoline-4-carboxamide]: on human A1 receptor, the “A2a selectivity” value was found to be 105. This compound displayed a Ki on human A2a receptor (setting [1]) of 1.6 nM.
Regarding `COc1cccc2c(C(=O)NCc3cccc(C(C)(C)O)n3)nc(N)nc12` [Example 9, 2-amino-N-[[6-(1-hydroxy-1-methyl-ethyl)-2-pyridyl]methyl]-8-methoxy-quinazoline-4-carboxamide], at human A1 receptor, the “A2a selectivity” value stood at 764. For the same compound, the affinity on human A2a receptor (setting [1]) corresponds to a Ki of 0.4 nM.
As to `Nc1nc(C(=O)NCc2cccc(CO)n2)c2cccc(F)c2n1` [Example 57, 2-amino-8-fluoro-N-[[6-(hydroxymethyl)-2-pyridyl]methyl]quinazoline-4-carboxamide], at human A1 receptor, the “A2a selectivity” value was 67. The compound further came in with a Ki at human A2a receptor (setting [1]) of 9.6 nM.

The Ki is the equilibrium dissociation constant of an inhibitor or competing ligand from its target. Lower therefore signals a stronger hold on the target.
